Results from patent US20260000596A1, “SEMI-SYNTHETIC RHAMNOLIPIDS” (The Procter & Gamble Company, priority 2024, published 2026).
≈ marks a conversion by molar mass, not a printed value. Like-named read-outs stand apart in the source and are kept apart here.

How the values were obtained:
Type in all cases: cell-based
[1] = system: Escherichia coli ATCC 8739; experiment: Minimal Kill Concentration Assay (MKCA), E. coli; details: for MBC: Escherichia coli, ATCC8739, 20 min, read-out: E. coli MKC (ppm)
Description: (§1) The MKC assay is a 96 well plate method to determine the minimum concentration of a test material or composition needed to kill Gram-negative and Gram-positive bacteria (Escherichia coli ATCC 8739 and Staphylococcus aureus ATCC 6538, respectively). The bacterial suspensions are prepared from 10× freezer stocks with 15% glycerol. The freezer stocks are centrifuged at 13,000×g (Eppendorf Centrifuge […] No. 541705483) for 1 minute. The supernatant is removed, and the cell pellet is resuspended in 1 mL saline (Sodium chloride solution 0.9%, Cytiva REF: Z1376), and then transferred to 9 mL saline. The target cfu/ml is 10^8, which is confirmed via serial diluting and plating on TSA plates (Tryptic Soy Agar-Sigma-Aldrich Cat #22091). Then 50 μL (25 μL if low on test materials) of bacteria is added to each well of a 96 well 0.5 mL V-Bottom plate (Greiner bio-one REF: 786201) to make a bacteria plate, one separate plate for each bacterium. The dilutions of the test compounds are prepared in a separate 96 well plate. The test compounds are tested at six dilutions in duplicates or with no replication diluted across the entire plate. The test compounds are prepared in Dimethyl Sulfoxide (Sigma Aldrich GR ACS Cat. No: MX1458-6) or sterile water at 2× the intended test concentration, and then serially diluted in the appropriate vehicle 1:2 across the plate using a multichannel. 50 μL (25 μL if low on test materials) from the test compound plate is added to each well in the bacteria plate all at once using an Integra VIAFLOW 96 channel pipette (Model: VIAFLO 96) and the Integra 300 μL Head (Part No. 6103). With addition of the 2× compounds bacteria plate, the compounds are diluted to a 1× test concentration. The addition of the test compounds to the bacteria wells starts the 20-minute contact time. The plates are mixed well using a Mix-Mate (Eppendorf SE). After 20 minutes, 1 μL from each well of the bacteria plate is transferred to premade Tryptic Soy Agar (TSA) plates (OmniTray Cell Culture Treated w/Lid Sterile, Cat. No: 165218) for spot plating using the Integra VIAFLOW 96 with the Integra 12.5 μL head (Part No. 6101). Then 4 μL from each well of the bacteria/compound plate is transferred to another 96 well plate containing 36 μL of neutralizer broth Modified Letheen Broth (BD Difco Letheen Broth, Modified REF 263010). The contact time is stopped at 20 minutes once the compound plate is neutralized. The plates are mixed well using a Mix-Mate and then 1 μL of the neutralizer+sample mix is transferred to a TSA OmniTray plate using the Integra VIAFLOW and Integra 12.5 μL head. The TSA spot plates are then incubated overnight for 20 hours at 37° C. in an Incubator. This process is done for both bacteria species. After overnight incubation, the plates are removed from the incubator and the results recorded by observing which dilutions had bacterial kill/growth. The last dilution that had kill for both replicates is recorded as the MKC. A positive control of Benzalkonium chloride (Sigma Aldrich Cat. No.: 12060-5G) and vehicle controls are always included in the test.

[2] = system: Staphylococcus aureus ATCC #6538; experiment: Minimum Inhibitory Concentration (MIC) Assay with Minimum Biocidal Concentration (MBC); details: solvent DMSO; for MBC / MIC: Staphylococcus aureus, ATCC6538, 24 h; for MBC: read-out: S. aureus MBC (ppm); for MIC: read-out: S. aureus MIC (ppm)
Description: The Minimum Inhibitory Concentration (MIC) Assay is a 96-well high throughput method that determines the minimum concentration of an active required to inhibit the growth of microorganisms. Organism preparation: Compounds were evaluated against the following microorganisms: Staphylococcus aureus ATCC #6538 (American Type Culture Collection, Manassas, Virginia, USA). To prepare bacteria solutions, bacteria were streaked on Tryptic Soy Agar (TSA) and incubated at 30-35° C. for 18-24 hrs. Confluent growth was transferred to saline (0.85% NaCl) and turbidometrically adjusted to a target concentration of 10^7-10^8 CFU/ml. This inoculum solution was further diluted 1:1000 in Tryptic Soy Broth (pH 7) for assay use. Assay: Two-fold serial dilutions were prepared in Dimethylsulfoxide (DMSO, Thermo Scientific Pierce DMSO, Sequencing Grade) or sterile water for each test sample. In a sterile 96-well plate, each dilution was further diluted in broth inoculum such that each well contained 5% dilution and 95% broth inoculum. Bacteria plates were incubated on an orbital shaker (Heidolph Titramax 1000 Vibrating Platform Shaker, 200-300 rpm) for 24±2 hrs at 35° C. After incubation, the optical density (OD) of each well was measured in a spectrophotometer (Victor Nivo Multimode Plate Reader) at 600 nm. […] To determine the Minimum Biocidal Concentration (MBC), 2 ul from each well was pipetted onto neutralizing agar (Modified Letheen Agar with Tween) and incubated for 24 hrs at 30-35° C. The MBC was determined as the most dilute concentration with no visible growth.

[3] = system: Staphylococcus aureus ATCC 6538; experiment: Minimal Kill Concentration Assay (MKCA), S. aureus
Description: as §1

[4] = Table 1.4b, solvent DMSO, 20-minute contact time
[5] = Table 4, derivatized rhamnolipids, solvent DMSO, 20-minute contact time

Row | Molecule | MBC ([2]; Table 5) | MIC ([2]; Table 5) | E. coli MKC (ppm) [1, 5] | S. aureus MBC (ppm) ([2]; Table 5) | S. aureus MIC (ppm) ([2]; Table 5) | S. aureus MKC (ppm) [3, 5] | further results
1 | CCCCCC(CC(=O)O)OC1O[C@@H](C)[C@H](O)[C@@H](O)[C@H]1O (some centres unmarked) [Rha1C14] | – | – | – | – | – | – | E. coli MKC (ppm) [1, 4]: 781 ppm; S. aureus MIC (ppm) ([2]; Table 1.5, >=50% inhibition, 24 hrs at 35° C.): 625 ppm; S. aureus MBC (ppm) ([2]; Table 1.5, no visible growth): >10000 ppm; S. aureus MKC (ppm) [3, 4]: 781 ppm
2 | CCCCCCCC(CC(=O)O)O[C@@H]1O[C@@H](C)[C@H](O)[C@@H](O)[C@H]1O[C@@H]1O[C@H](C)C(O)[C@@H](O)[C@H]1O (stereo partly drawn) [calcium 3-(((2R,3R,4R,5R,6S)-4,5-dihydroxy-6-methyl-3-(((2S,3R,4R,6R)-3,4,5-trihydroxy-6-methyltetrahydro-2H-pyran-2-yl)oxy)tetrahydro-2H-pyran-2-yl)oxy)decanoate] | > 4000 µg/mL | > 4000 µg/mL | – | – | – | – | MBC [1]: > 9390 µg/mL; MBC ([3]; Staphylococcus aureus, ATCC6538, 20 min, read-out: S. aureus MKC (ppm)): > 9390 µg/mL
3 | CCCCCCCC(CC(=O)OC)O[C@@H]1O[C@@H](C)[C@H](O)[C@@H](O)[C@H]1O (stereo partly drawn) [methyl 3-(((2R,3R,4R,5R,6S)-3,4,5-trihydroxy-6-methyltetrahydro-2H-pyran-2-yl)oxy)decanoate] | 1400 µg/mL (≈ 4 mM) | 1400 µg/mL (≈ 4 mM) | – | – | – | – | MBC [1, 5]: > 3490 µg/mL; minimal kill concentration (20-minute contact) ([3]; Staphylococcus aureus, ATCC6538, 20 min, Table 4, derivatized rhamnolipids, solvent DMSO, 20-minute contact time, read-out: S. aureus MKC (ppm)): > 3490 µg/mL
4 | Methyl 3-(((2R,3R,4R,5R,6S)-4,5-dihydroxy-6-methyl-3-(((2R,3S,4S,5S,6S)-3,4,5-trihydroxy-6-methyltetrahydro-2H-pyran-2-yl)oxy)tetrahydro-2H-pyran-2-yl)oxy)decanoate | – | – | >4945.8 ppm | 1978.3 ppm | 1978.3 ppm | >4945.8 ppm | –
5 | N-benzyl-3-(((2R,3R,4R,5R,6S)-4,5-dihydroxy-6-methyl-3-(((2R,3S,4S,5S,6S)-3,4,5-trihydroxy-6-methyltetrahydro-2H-pyran-2-yl)oxy)tetrahydro-2H-pyran-2-yl)oxy)decanamide | – | – | >5696.9 ppm | >2278.3 ppm | 2278.8 ppm | >5696.9 ppm | –
